Results as given in patent publication US20250115594A1, “ANTIBACTERIAL AGENTS: SOLUBLE SALTS AND AQUEOUS FORMULATIONS OF PYRONINS” (priority 2018, published 2025).
Converted amounts (≈) assume the structure as drawn.

Legend:
physchem [1] = type: physicochemical; conditions: for solubility: thermodynamic from solid
Description: Starting with 0.5-5 mg test compound in a glass vial at room temperature, successive cycles of addition of vehicle, vortexing 15 s, and inspection were performed until all test compound dissolved. Vehicles were: 0.01 M sodium phosphate (pH 7.4); 5% dextrose in 0.01 M sodium phosphate (pH 7.4); and 0.5% carboxymethylcellulose (CMC)/0.5% Tween-80 (pH 8.4).

[2] = tested on: Mycobacterium tuberculosis H37Rv; assay: Inhibition of bacterial growth, microplate Alamar Blue assay, M. tuberculosis; type: cell-based; conditions: read-out: in vitro antibacterial activity M. tuberculosis H37Rv MIC
physchem [3] = type: physicochemical; conditions: for solubility at 2 h: 37 °C, pH 7.4, aqueous buffer, kinetic from dmso stock
Description: Serial dilutions of test articles were prepared in dimethyl sulfoxide at 100× the final concentration. Test article solutions and blanks were diluted 100× into phosphate-buffered saline (PBS; 0.01 M sodium phosphate, pH 7.4, 137 mM NaCl, and 3 mM KCl) in a 96-well plate and mixed. After 2 h at 37° C., the presence of precipitate was detected by turbidity (absorbance at 540 nm). An absorbance value of greater than “mean+3xSD of the blank” (after subtracting background) was considered an indication of turbidity. The solubility limit was reported as the highest tested concentration with no evidence of turbidity.

[4] = tested on: Escherichia coli D21f2tolC; assay: Inhibition of bacterial growth, spiral gradient endpoint assay, E. coli; type: cell-based; conditions: read-out: in vitro antibacterial activity E. coli D21f2tolC MIC
From the text: (§1) Minimum inhibitory concentrations (MICs) for Staphylococcus aureus ATCC 12600 and Escherichia coli D21f2tolC were quantified using spiral gradient endpoint assays, essentially as described [Wallace, A. and Corkill, J. (1989) Application of the spiral plating method to study antimicrobial action. J. Microbiol. Meths. 10, 303-310; Paton, J., Holt, A., and Bywater, M. (1990) Measurement of MICs of antibacterial agents by spiral gradient endpoint compared with conventional dilution methods. Int. J. Exp. Clin. Chemother. 3, 31-38; Schalkowsky S. (1994) Measures of susceptibility from a spiral gradient of drug concentrations. Adv. Exp. Med. Biol. 349, 107-120]. Assays employed exponential-gradient plates containing 150 mm×4 mm Mueller-Hinton II cation-adjusted agar and 0.4-100 μg/ml of test salt. Plates were prepared using an Autoplate 4000 spiral plater (Spiral Biotech, Inc.). Saturated overnight cultures were swabbed radially onto plates, and plates were incubated for 16 h at 37° C. For each culture, the streak length was measured using a clear plastic template (Spiral Biotech, Inc.), the test-salt concentration at the streak endpoint was calculated using the program SGE (Spiral Biotech, Inc.), and the MIC was defined as the calculated test-salt concentration at the streak endpoint.

[5] = target: M. tuberculosis RNA polymerase (Mycobacterium tuberculosis (strain ATCC 25618 / H37Rv), UniProt P9WGY7+P9WGY9); assay: Fluorescence-detected assay of inhibition of Mycobacterium tuberculosis RNA polymerase; type: biochemical; conditions: read-out: RNAP-inhibitory activity M. tuberculosis RNAP IC50
Description: (§2) Fluorescence-detected RNA polymerase assays with E. coli RNA polymerase were performed by a modification of the procedure of Kuhlman et al., 2004 [Kuhlman, P., Duff, H. & Galant, A. (2004) A fluorescence-based assay for multisubunit DNA-dependent RNA polymerases. Anal. Biochem. 324, 183-190]. Reaction mixtures contained (20 μl): 0-100 nM test salt, 75 nM E. coli RNA polymerase σ^70 holoenzyme, 20 nM 384 bp DNA fragment containing the bacteriophage T4 N25 promoter, 100 μM ATP, 100 μM GTP, 100 μM UTP, 100 μM CTP, 50 mM Tris-HCl, pH 8.0, 100 mM KCl, 10 mM MgCl2, 1 mM DTT, 10 μg/ml bovine serum albumin, and 5.5% glycerol. Reaction components other than DNA and NTPs were pre-incubated for 10 min at 37° C. Reactions were carried out by addition of DNA and incubation for 5 min at 37° C., followed by addition of NTPs and incubation for 60 min at 37° C. DNA was removed by addition of 1 μl 5 mM CaCl2 and 2 U DNaseI (Ambion, Inc.), followed by incubation for 90 min at 37° C. RNA was quantified by addition of 100 μl RiboGreen RNA Quantitation Reagent (Invitrogen, Inc.; 1:500 dilution in Tris-HCl, pH 8.0, 1 mM EDTA), followed by incubation for 10 min at 25° C., followed by measurement of fluorescence intensity [excitation wavelength=485 nm and emission wavelength=535 nm; QuantaMaster QM1 spectrofluorometer (PTI, Inc.)]. IC50 is defined as the concentration of inhibitor resulting in 50% inhibition of RNA polymerase activity.
(§3) Fluorescence-detected RNA polymerase assays with M. tuberculosis RNA polymerase were performed as in Example 17.1, using reaction mixtures containing (20 μl): 0-100 nM test salt, 75 nM M. tuberculosis RNA polymerase core enzyme, 300 nM M. tuberculosis σ^A, 20 nM 384 bp DNA fragment containing the bacteriophage T4 N25 promoter, 100 μM ATP, 100 μM GTP, 100 μM UTP, 100 μM CTP, 40 mM Tris-HCl, pH 8.0, 80 mM NaCl, 5 mM MgCl2, 2.5 mM DTT, and 12.7% glycerol. IC50 is defined as the concentration of inhibitor resulting in 50% inhibition of RNA polymerase activity.

[6] = tested on: Staphylococcus aureus ATCC 12600; assay: Inhibition of bacterial growth, spiral gradient endpoint assay, S. aureus; type: cell-based; conditions: ATCC12600, read-out: in vitro antibacterial activity S. aureus ATCC12600 MIC
From the text: as §1

[7] = target: E. coli RNA polymerase σ70 holoenzyme (Escherichia coli (strain K12), UniProt P0A8T7+P0A8V2); assay: Fluorescence-detected assay of inhibition of Escherichia coli RNA polymerase; type: biochemical; conditions: read-out: RNAP-inhibitory activity E. coli RNAP IC50
Description: as §2

S. aureus RNA polymerase = S. aureus RNA polymerase (Staphylococcus aureus (strain NCTC 8325 / PS 47), UniProt P47768+Q2G0N5); assay: Fluorescence-detected assay of inhibition of Staphylococcus aureus RNA polymerase; type: biochemical; conditions: read-out: RNAP-inhibitory activity S. aureus RNAP IC50
Description: as §2
as §3, with “S. aureus” for “M. tuberculosis”

[8] = pH 8.4, aqueous with cosolvent or surfactant or cyclodextrin

Structure (SMILES)	solubility (physchem [1]; pH 7.4, aqueous buffer) [µg/mL]	solubility (physchem [1]; pH 7.4, saline or isotonic) [µg/mL]	solubility (physchem [1]; [8]) [µg/mL]	MIC [2] [µg/mL]	solubility at 2 h (physchem [3]) [µg/mL]	MIC [4] [µg/mL]	IC50 [5] [nM]	MIC [6] [µg/mL]	IC50 [7] [nM]	IC50 (S. aureus RNA polymerase) [nM]	concentration at which it can be formulated (physchem [1]) [µg/mL]	times more soluble than the corresponding free acid (Example 8) (physchem [3]) [times]
[2H]C([2H])([2H])OC(=O)N/C=C/CCCc1cc(O)c(C(=O)/C(C)=C/c2cnc(Oc3ccc(F)cc3)s2)c(=O)o1 [Example 8]	< 100	< 100	< 100	0.8 (≈ 1.55 µM)	100 (≈ 193 µM)	0.06 (≈ 0.116 µM)	20	0.3 (≈ 0.58 µM)	4	60		
[2H]C([2H])([2H])OC(=O)N/C=C/CCCc1cc([O-])c(C(=O)/C(C)=C/c2cnc(Oc3ccc(F)cc3)s2)c(=O)o1.[Na+] [Example 9]	10000	5000	20000	0.4	≥ 5000	0.04	30	0.4		30	≥ 10000	≥ 50
[2H]C([2H])([2H])OC(=O)N/C=C/CCCc1cc([O-])c(C(=O)/C(C)=C/c2cnc(Oc3ccc(F)cc3)s2)c(=O)o1.[K+] [Example 10]						0.03		0.2	6			
[2H]C([2H])([2H])OC(=O)N/C=C/CCCc1cc(O)c(C(=O)/C(C)=C/c2cnc(Oc3ccc(F)c(Cl)c3)s2)c(=O)o1 [Example 11]				0.8 (≈ 1.45 µM)		0.02 (≈ 0.0362 µM)	30	0.2 (≈ 0.362 µM)	3	1		
[2H]C([2H])([2H])OC(=O)N/C=C/CCCc1cc([O-])c(C(=O)/C(C)=C/c2cnc(Oc3ccc(F)c(Cl)c3)s2)c(=O)o1.[Na+] [Example 12]				0.8		0.03	30	0.2		3		
[2H]C([2H])([2H])OC(=O)N/C=C/CCCc1cc(O)c(C(=O)/C(C)=C/c2cnc(Oc3ccc(-c4ccccc4)cc3)s2)c(=O)o1 [Example 13]				> 50		0.03 (≈ 0.0521 µM)	> 6000	> 8	20	10		
[2H]C([2H])([2H])OC(=O)N/C=C/CCCc1cc([O-])c(C(=O)/C(C)=C/c2cnc(Oc3ccc(-c4ccccc4)cc3)s2)c(=O)o1.[Na+] [Example 14]				> 50		0.03	> 6000	> 8	50	30		
